Assay results as given in ChEMBL document CHEMBL1641553, “Antimalarials based on the dioxane scaffold of plakortin. A concise synthesis and SAR studies” (Bioorg Med Chem, 2011).

Key:
Plasmodium falciparum [1] = assay: Antimalarial activity against chloroquine-sensitive Plasmodium falciparum D10 infected in human A-positive red blood cells after 72 hrs by lactate dehydrogenase assay; type: functional, organism-based; conditions: D10, 72 h
Plasmodium falciparum [2] = assay: Antimalarial activity against chloroquine-resistant Plasmodium falciparum W2 infected in human A-positive red blood cells after 72 hrs by lactate dehydrogenase assay; type: functional, organism-based; conditions: W2, 72 h

Structure (SMILES)	IC50 (Plasmodium falciparum [1]) [µM]	IC50 (Plasmodium falciparum [2]) [µM]
CCCCC[C@@H]1OO[C@H](CC(=O)OCC)[C@@H](O)[C@H]1O	> 30	> 30
CCCCC[C@H](O)/C=C\[C@@H](CC(=O)OCC)OCCCC	> 30	> 30
CCCCC[C@@H]1OO[C@H](CC(=O)OCC)[C@H]2O[C@H]21	22.1	10.3
CCCCC[C@@H]1OO[C@H](CC(=O)OCC)[C@@H](Br)[C@@H]1Br	8.15	5.11
CCCCCC/C=C/C=C/C(=O)OCC	0.9	0.43
CCCCC[C@H]1C=C[C@@H](CC(=O)OCC)OO1	1.2	1.49
CCCCC[C@H]1C=C[C@@H](CCO)OO1	> 30	> 30
CCCCC[C@H]1C=C[C@@H](CCOC(C)=O)OO1	21.9	12.5
CCCCC[C@H]1C=C[C@@H](CC(=O)O)OO1	3.33	3.42
CCCCC[C@@H]1OO[C@H](CC(=O)OCC)[C@@H]2O[C@@H]21	> 30	> 30
CCCCC[C@@H]1OO[C@H](CC(=O)OCC)[C@H](Br)[C@H]1Br	9.12	5.65
CCCCCC/C=C/C=O [2-NONENAL]	0.87	0.39
